Test results reported in patent publication EP0405997B1, “Antibiotic agent” (Merck & Co., Inc., priority 1989, dated 1991).
Converted amounts (≈) assume the structure as drawn. Like-named read-outs stand apart in the source and are kept apart here. Numbered stars: 1 amine (or outer) side, 2 acyl side, 3 side chain; on linkers, the order of the positions; unused ones are H or OH. Bridge positions count the residues as written; N and C are the ends. Square brackets hold non-standard residues; d marks the D form. Peptide text beside a SMILES is read from it. * marks the point of attachment. Orn(4R-OH,5R-OH) = O=C([C@H](C[C@@H](O)[C@@H](O)N[*:3])N[*:1])[*:2]; Tetradecanoyl(10R,12S-Me2) = CC[C@H](C)C[C@H](C)CCCCCCCCC(=O)*; hTyr(3S-OH,4S-OH) = N[C@H](C(=O)O)[C@H](O)[C@@H](O)c1ccc(O)cc1; Gln(3R-OH) = NC(=O)C[C@@H](O)[C@H](N)C(=O)O; Pro(3S-OH) = O=C(O)[C@H]1NCC[C@@H]1O; Hyp = O=C(O)[C@@H]1C[C@@H](O)CN1

Columns and labels:
[1] = system: Candida albicans; assay: microbe, parasite or virus in culture
Method: (§1) In carrying out the assay, Compound I was solubilized in 10 percent dimethyl sulfoxide (DMSO) and diluted to 2560 µg/ml. The compounds were further diluted to 256 µg/ml in YNBD. Then 0.15 ml of the suspension was dispensed to the first row of a 96-well plate (each well containing 0.15 ml of YNDB) resulting in a drug concentration of 128 µg/ml. Two-fold dilutions were then made to obtain final drug concentrations ranging from 128 to 0.06 µg/ml.
(§2) The yeast cultures, maintained on Sabouraud dextrose agar were transferred to YM broth (Difco) and incubated overnight at 35°C with shaking (250 rpm). After incubation, each culture was diluted in sterile water to yield a final concentration of 1-5 x 10⁶ colony forming units (CFU)/ml.
(§3) 96-well microplates were inoculated using a MIC-2000 (Dynotech) which delivers 1.5 µl per well yielding a final inoculum per well of 1.5-7.5 x 10³ cells. The microplates were incubated at 35°C for 24 hours. The minimum inhibitory concentrations (MICs) were recorded as the lowest concentrations of drug showing no visible growth.
(§4) After recording the MIC, the plates were shaken to resuspend the cells. Thereafter, 1.5 µl samples from the wells in the 96-well microplate were transferred to a single well tray containing Sabouraud dextrose agar. The inoculated trays were incubated 24 hours at 28°C and then read. The MFC is defined as the lowest concentration of drug showing no growth or less than 4 colonies per spot.

[2] = system: Candida parapsilosis; assay: microbe, parasite or virus in culture
Method: as §1, §2, §3, §4

[3] = system: Candida tropicalis; assay: microbe, parasite or virus in culture; conditions: read-out: Minimum Fungicidal Concentration
Method: as §1, §2, §3, §4

[4] = Solubility in organic solvents; format: physicochemical; conditions: methanol, ethanol, dimethylformamide, dimethyl sulfoxide, ethyl acetate and the like
[5] = system: Pneumocystis carinii; conditions: dexamethasone-immunosuppressed male C3H/Hej mice; 0.5 mg/kg intraperitoneally twice daily for two weeks; lung tissue
Method: In a representative study ten male C3H/Hej mice, weighing 22-24 gms. each, were immunosuppressed by the addition of dexamethasone to the drinking water (8.0 mg/L) for six weeks to induce the development of P. carinii infections. To enhance the infection the mice were also maintained on a low protein diet. At the beginning of the seventh week the mice were divided into two groups. Both groups continued to receive dexamethasone in the drinking water and low protein diet for the remainder of the study. Mice in Group I were injected intraperitoneally twice daily with 0.5 ml of a 20% DMSO solution as a vehicle control. […] The treatment period lasted two weeks.
At the end of the treatment period (a total of eight weeks immunosuppression) the animals were sacrificed and the lung tissues removed. The tissue was then processed to determine the number of cysts for each animal.

Question: Which MFC ([1]; read-out: Minimum Fungicidal Concentration, Candida albicans MY 1028, YNBD medium) does the source give for `CC[C@H](C)C[C@H](C)CCCCCCCCC(=O)N[C@H]1C[C@@H](O)[C@@H](O)NC(=O)[C@@H]2[C@@H](O)CCN2C(=O)[C@H]([C@H](O)CC(N)=O)NC(=O)[C@H]([C@H](O)[C@@H](O)c2ccc(O)cc2)NC(=O)[C@@H]2C[C@@H](O)CN2C(=O)[C@H]([C@@H](C)O)NC1=O` [Compound I, 1-[4,5-dihydroxy-N²-(10,12-dimethyl-1-oxotetradecyl)-ornithine]-5-(3-hydroxyglutamine)-6-(3-hydroxyproline)echinocandin B] ({Tetradecanoyl(10R,12S-Me2)}-[Orn(4R-OH,5R-OH)]T[Hyp][hTyr(3S-OH,4S-OH)][Gln(3R-OH)][Pro(3S-OH)]; lactam 1-C) here?
Answer: 1 µg/mL (≈ 0.939 µM)

Question: And the MFC ([1]; read-out: Minimum Fungicidal Concentration, Candida albicans MY 1208, YNBD medium)?
Answer: 0.5 µg/mL (≈ 0.469 µM)

Question: And the MFC ([1]; read-out: Minimum Fungicidal Concentration, Candida albicans MY 1585, YNBD medium)?
Answer: 0.5 µg/mL (≈ 0.469 µM)

Question: What about the MFC ([1]; read-out: Minimum Fungicidal Concentration, Candida albicans MY 1750, YNBD medium) of the same compound?
Answer: 0.25 µg/mL (≈ 0.235 µM)

Question: What about the MFC ([1]; read-out: Minimum Fungicidal Concentration, Candida albicans MY 1783, YNBD medium) of the same compound?
Answer: 0.5 µg/mL (≈ 0.469 µM)

Question: And the “Minimum Fungicidal Concentration” value ([2]; Candida parapsilosis MY 1010, YNBD medium)?
Answer: 8.0 µg/mL

Question: And the MFC ([2]; Lodderomyces parapsilosis, read-out: Minimum Fungicidal Concentration)?
Answer: 8 µg/mL (≈ 7.51 µM)

Question: What about the MFC [3] of the same compound?
Answer: 2 µg/mL (≈ 1.88 µM)

Question: What about the solubility [4] of the same compound?
Answer: soluble in organic solvents

Question: And the “reduced the number of cysts as compared to the control animals” value [5]?
Answer: 81%
